This is an account of results in patent US5985937A, “Use of 2,4-distributed phenol derivatives as 5-lipoxygenase inhibitors” (priority 1994, dated 1999).

By IC50 is commonly meant the midpoint of a concentration-inhibition curve. What is called inhibition is how much of the control response was suppressed.

SMILES strings stand for the structures. Entries after “also recorded” stand apart in the source; their conditions may differ.

The test system of one series is canine arthrosis. As to the kind of experiment: clinical trial on canine arthrosis. In kind it is in vivo, dog. Also on record: key: +++: very good response, total recovery; ++: good response, functionability recovery; +: moderate response, improvement; -: negative response or no apparent improvement. To be noted: 4 mg/kg day orally, 45 days. The protocol:
After the diagnosis, each animal was treated with Bobel capsules during 45 days, with a follow up every 15 days. Blood, synovial liquid and urine samples were taken at the beginning and at the end of the treatment in order to perform the following tests: Synovial liquid analysis (cytology, cytokines 1,6,8 and TNF); LTB4; LTC4; PGE2; hematic count and leukocyte content; standard serum biochemistry; urine sediment; Rose-Wealer test; and radiology control. The methodology for clinical validation involved applying evaluating uniform parameters and classifying the results according to the following notations: (+++)=very good response, total recovery; (++)=good response, functionability recovery; (+)=moderate response, improvement; (-)=negative response or no apparent improvement.

The target in a further series is T1, 5-lipoxygenase (5-LO) (Homo sapiens, UniProt P09917).
T1 construct: endogenous in cells; host or cells: human polymorphonuclear leukocytes from donor blood
T1 sequence (P09917 1-674): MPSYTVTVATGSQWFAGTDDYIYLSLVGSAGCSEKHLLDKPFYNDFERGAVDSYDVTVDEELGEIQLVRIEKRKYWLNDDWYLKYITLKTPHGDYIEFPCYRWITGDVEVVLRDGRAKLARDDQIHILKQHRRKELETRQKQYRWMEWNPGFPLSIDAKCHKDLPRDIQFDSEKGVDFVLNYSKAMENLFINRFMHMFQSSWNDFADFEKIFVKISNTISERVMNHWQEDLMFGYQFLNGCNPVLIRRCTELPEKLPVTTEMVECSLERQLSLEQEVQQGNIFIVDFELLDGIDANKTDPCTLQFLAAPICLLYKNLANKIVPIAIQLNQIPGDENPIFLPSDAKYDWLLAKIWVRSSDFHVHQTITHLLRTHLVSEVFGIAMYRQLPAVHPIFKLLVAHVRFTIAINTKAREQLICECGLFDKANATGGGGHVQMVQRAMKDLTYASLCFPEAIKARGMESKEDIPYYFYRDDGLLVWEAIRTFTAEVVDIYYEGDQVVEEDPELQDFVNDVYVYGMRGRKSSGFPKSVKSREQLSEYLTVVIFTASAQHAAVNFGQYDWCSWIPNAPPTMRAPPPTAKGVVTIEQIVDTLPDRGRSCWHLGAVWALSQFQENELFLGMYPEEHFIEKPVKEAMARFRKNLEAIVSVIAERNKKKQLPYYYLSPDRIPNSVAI
Put plainly: 5-LO inhibiting activity in human polymorphonuclear leukocytes ([14C]-arachidonic acid, A23187; HPLC of eicosanoids). In kind it is cell-based. Here is the method:
In order to show the 5-LO inhibiting activity of the products of the present invention, a specific test based on human polymorphonuclear leukocytes is chosen.
5-LO Inhibiting Activity in Polymorphonuclear Leukocytes
Blood was obtained from donors which had not received medication during the ten days previous to the extraction. The blood was treated with an anticoagulant (ACD-A) and was centrifuged at 200 g during 12 min at room temperature, separating the supernatant. A solution of Dextran T-500 in physiological serum was added to the pellet, in order to obtain a final concentration of 0.6% w/v, and was allowed to sediment during 40 min. The supernatant was centrifuged at 180 g during 10 min at room temperature. The pellet was resuspended in 5 ml of Hank's buffer, pH 7.4. After the addition of 3 ml of Lymphoprep, the suspension was centrifuged at 450 g during 30 min, and the layers of supernatant were discarded. The next step was the lysis of the erythrocytes present by adding 2 ml of a saline solution. The resulting volume was adjusted to 10 ml with Hank's buffer, pH 7.4. The solution was centrifuged during 10 min at 180 g; the supernatant was discarded and the resulting pellet was resuspended in 1-2 ml of Hank's buffer, pH 7.4. The cellular density was determined using a haemocytometer using the procedure of microcollection Unopette to determine the levels of platelet contamination. Cellular density was adjusted to 2×10^7 cells/ml with Hank's buffer, pH 7.4 and CaCl2 was added to a final concentration of 1.5 mM.
Aliquots (0.5 ml) of the polymorphonuclear leukocytes suspensions, obtained as described in part (a), were incubated during 5 min at 37° C. in the absence (control) and in the presence of three different concentrations of each drug. Afterwards an ethanol solution of [^14 C]-arachidonic acid and A23187 ionophore was added to obtain a final concentration of 10 and 5 μM, respectively. After 5 min of incubation the reaction was stopped by addition of 0.5 ml of ice-cold ethanol. Samples were centrifuged during 2 min at 1500 g, and the supernatants were kept at -80° C. until analyzed. Controls were carried out using the polymorphonuclear leukocyte suspensions aliquots in the presence of the solvent (DMSO) only.
The analysis of the products from the transformation of arachidonic acid through the action of the lipoxygenase (these products being the eicosanoids) was carried out using high pressure liquid chromatography (HPLC), in a reverse phase column (Ultrasphere-ODS, Beckman), injecting 500 μl of the supernatants obtained from the incubations. Elution was carried out using an isocratic mix of mathanol:water:triethylamine:trifluoroacetic acid, 75:25:0.05:0.10, with a flux of 1 ml/min. Detection was carried out with a radioactivity detector with a liquid scintillation cell on-line coupled with the column.

A further series concerns cyclooxygenase. As to conditions: in words; cited from earlier work.
The next series has as its system bacterial strains. Put plainly: mutagenic activity in four bacterial strains. Also on record: species or system bacteria.
For a further series, the system named is dyspnea. Put plainly: treatment of race horses with dyspnea. In kind it is in vivo, horse. To be noted: eleven race horses, intravenous 50 mg/day, one week. Here is the method:
Eleven race horses manifesting dyspnea of variable degree, accompanied of great sensibility in the movements and, in the majority of the cases respiratory anxiety, coughs and mucous-purulent nasal flux, were treated with an intravenous dose of Bobel-24 of 50 mg/day during one week.

For a further series, the system named is feline asthma. As to the kind of experiment: treatment of cats with feline asthma. In kind it is in vivo, cat. To be noted: 5 mg/day, cream applied to the leg and licked.
For another series, the system named is bursitis. Put plainly: treatment of horses with bursitis. In kind it is in vivo, horse. To be noted: seven young horses, 15 mg/day intraarticular infiltration.

Turning to `Oc1c(I)cc(I)cc1I` [Bobel-24, 2,4,6-triiodophenol], the “Evolution, spondolytis” value with canine arthrosis (Doge 3 years) is listed as “+++”. Besides, in the series on canine arthrosis (German shepherd 2 years), the “Evolution, broken muscle” value is recorded as “+”. Besides, the “Evolution, generalized arthrosis” value in the series on canine arthrosis (German shepherd 10 years) is on record as “++”. In addition, the “Evolution, rotular arthrosis” value in the series on canine arthrosis (Mongrel 14 years) is listed as “++”. The “Evolution, degenerative arthrosis” value in the series with canine arthrosis (Poodle 11 years) is reported as “+++”. The “Evolution, broken crossed ligament” value in the series with canine arthrosis (Poodle 15 years) is recorded as “+”. Besides, the “Evolution, equine cauda” value in the series on canine arthrosis (b309 Mastif 11 years, b317 Mongrel 13 years) is given as “+++”. Further, the “Evolution, arthrosis” value in the series on canine arthrosis (b312 Rottwailer 1 year, b322 German shepherd 9 years) is given as “+++”. Moreover, half-maximal inhibition at 5-lipoxygenase (5-LO) (IC50) required 10 µM. For the same molecule, the “products derived from 5-LO biosynthesis (chromatogram)” value on 5-lipoxygenase (5-LO) (25 μM, arachidonic acid 10 μM, FIG. 2) is reported as “practically complete disappearance of the products derived from 5-LO biosynthesis”. At 5-lipoxygenase (5-LO) (25 μM, arachidonic acid 10 μM, due to contaminating platelets), the “15-HETE and 12-HETE formation” value is “increment in 15-HETE and 12-HETE”. In addition, at 5-lipoxygenase (5-LO) (LTB4, 6-trans-LTB4, 5-HETE, 20-OH-LTB4, FIGS. 3 and 4), the “concentration of biosynthesis products versus concentration of the drug” value is reported as “decreased in approximately linear with the concentration of the drug used”. Further, the “concentration required for a given inhibition relative to benoxaprofen or ketaconozale” value on 5-lipoxygenase (5-LO) (ratio from IC50) is “approximately one tenth; also recorded: ten times smaller”. Also, the inhibition at 25 µM at 5-lipoxygenase (5-LO) (read-out: 5-LO inhibitory activity, approximate inhibition percentage) came to 100%. For the same molecule, at 5-lipoxygenase (5-LO) (versus benoxaprofen and ketoconazole, FIGS. 3 and 4), the “gradient of decrease of 5-LO products with concentration, compared with the other two drugs” value is given as “gradients were greater”. Also, the cyclooxygenase inhibiting activity result in the series on cyclooxygenase is on record as “some cyclooxygenase inhibiting activity”. For the same molecule, the mutagenic activity result in the series with bacterial strains was “No mutagenic activity”. Further, in the series with dyspnea, the horses suffering relapse result is “None of the horses suffered relapse”; the improvement result was “The improvement was quite high”; the “time to disappearance of all the symptoms” value is at most 9 days; the “time to reincorporation to training, without any sequel” value worked out at 21 days. The “results in feline asthma” value in the series with feline asthma is on record as “satisfactory results in many cases”. The reduction in inflammation result in the series on bursitis was “a reduction in the inflammation was obtained”.
